Data from US20140135270A1, “MACROCYCLIC COMPOUNDS FOR INHIBITION OF INHIBITORS OF APOPTOSIS” (Ensemble Therapeutics Corp., priority 2012, published 2014).

What was measured:
[1] = target: T1, His-BIR2-3 (125-356, C202A/C213G, XIAP) (Homo sapiens, UniProt P98170, C202A/C213G); assay: XIAP-BIR2-3 Dimeric SMAC Peptide Homogeneous Time Resolved Fluorescence (HTRF) Assay; format: binding; conditions: fluorescein labeled dimeric SMAC peptide
T1 construct: additions of His-BIR2-3 (125-356, C202A/C213G, XIAP), fluorescein labeled dimeric SMAC peptide

His-BIR3 (241-356, XIAP) = target: T2, His-BIR3 (241-356, XIAP) (Homo sapiens, UniProt P98170); assay: XIAP-BIR3/SMAC Homogeneous Time Resolved Fluorescence (HTRF) Assay; format: binding; conditions: fluorescein labeled SMAC peptide
T2 construct: additions of His-BIR3 (241-356, XIAP), fluorescein labeled SMAC peptide
T2 sequence (P98170 241-356): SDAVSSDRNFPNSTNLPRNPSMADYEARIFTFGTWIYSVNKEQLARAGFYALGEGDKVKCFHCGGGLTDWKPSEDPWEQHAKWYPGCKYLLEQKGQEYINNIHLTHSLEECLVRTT

T1 sequence (P98170 125-356 C202A/C213G): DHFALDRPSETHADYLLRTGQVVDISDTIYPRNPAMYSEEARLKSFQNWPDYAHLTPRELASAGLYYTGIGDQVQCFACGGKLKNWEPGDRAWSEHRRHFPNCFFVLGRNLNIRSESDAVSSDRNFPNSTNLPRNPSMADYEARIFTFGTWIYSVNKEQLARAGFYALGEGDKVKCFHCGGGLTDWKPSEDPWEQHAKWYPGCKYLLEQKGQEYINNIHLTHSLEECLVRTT

Row | IC50 [1] [nM] | IC50 (His-BIR3 (241-356, XIAP)) [nM] | SMILES
1 | 7.8 | 90.3 | CN[C@@H](C)C(=O)N[C@H](C(=O)N1C[C@@H]2C[C@H]1C(=O)N[C@@H](Cc1ccc3ccccc3c1)C(=O)N[C@H](C(=O)NS(=O)(=O)C1CC1)Cc1ccc(cc1)OCc1cn(nn1)[C@H]1C[C@@H](C(=O)N[C@@H](Cc3ccc4ccccc4c3)C(=O)N[C@H](C(=O)O)Cc3ccc(cc3)OC/C=C/CO2)N(C(=O)[C@@H](NC(=O)[C@H](C)NC)C(C)(C)C)C1)C1CCCCC1 [Example 108]
2 | – | 77.8 | CC[C@H](NC(=O)[C@H](C)NC)C(=O)N1C[C@@H]2C[C@H]1C(=O)N[C@@H](c1ccccc1)C(=O)N[C@H](C(=O)O)Cc1ccc(cc1)C(=O)N[C@H]1C[C@@H](C(=O)N[C@@H](Cc3ccc4ccccc4c3)C(=O)N[C@H](C(=O)O)Cc3ccc(cc3)OC/C=C/CO2)N(C(=O)[C@@H](NC(=O)[C@H](C)NC)C(C)(C)C)C1 [Example 52]
3 | 2.6 | 34.1 | CN[C@@H](C)C(=O)N[C@H](C(=O)N1C[C@@H]2C[C@H]1C(=O)N[C@@H](Cc1ccc3ccccc3c1)C(=O)N[C@H](C(=O)O)Cc1ccc(cc1)OC/C=C/CO[C@H]1C[C@@H](C(=O)N[C@@H](Cc3ccc4ccccc4c3)C(=O)N[C@H](C(=O)NS(=O)(=O)C3CC3)Cc3ccc(cc3)OCc3cn2nn3)N(C(=O)[C@H](NC(=O)[C@H](C)NC)[C@@H](C)O)C1)C(C)(C)C [Example 111]
4 | 0.6 | 2.1 | CN[C@@H](C)C(=O)N[C@H](C(=O)N1C[C@@H]2C[C@H]1C(=O)NC(Cc1ccc3ccccc3c1)C(=O)N[C@H](C(=O)NS(=O)(=O)CCCO)Cc1ccc(cc1)OC/C=C/C[C@H]1C[C@@H](C(=O)N[C@@H](Cc3ccc4ccccc4c3)C(=O)N[C@H](C(=O)O)Cc3ccc(cc3)OCc3cn2nn3)N(C(=O)[C@@H](NC(=O)[C@H](C)NC)C(C)(C)C)C1)C(C)(C)C (stereo partly shown) [Example 94]
5 | 1.8 | 3.1 | CN[C@@H](C)C(=O)N[C@H](C(=O)N1C[C@@H]2C[C@H]1C(=O)NC(Cc1ccc3ccccc3c1)C(=O)N[C@H](c1n[nH]c(=O)n1Cc1ccc(OC)cc1)Cc1ccc(cc1)OC/C=C/C[C@H]1C[C@@H](C(=O)N[C@@H](Cc3ccc4ccccc4c3)C(=O)N[C@H](C(=O)O)Cc3ccc(cc3)OCc3cn2nn3)N(C(=O)[C@@H](NC(=O)[C@H](C)NC)C(C)(C)C)C1)C(C)(C)C (stereo partly shown) [Example 95]
6 | – | 60.3 | CC[C@H](NC(=O)[C@H](C)NC)C(=O)N1C[C@@H]2C[C@H]1C(=O)N[C@@H](c1ccccc1)C(=O)N[C@H](C(=O)O)Cc1ccc(cc1)C(=O)N[C@H]1C[C@@H](C(=O)N[C@@H](Cc3ccc4ccccc4c3)C(=O)N[C@H](C(=O)O)Cc3ccc(cc3)OC/C=C/CO2)N(C(=O)[C@@H](NC(=O)[C@H](C)NC)C(C)(C)C)C1 [Example 54]
7 | 9.3 | 48.5 | CN[C@@H](C)C(=O)N[C@@H](CC(N)=O)C(=O)N1C[C@@H]2C[C@H]1C(=O)N[C@@H](Cc1ccc3ccccc3c1)C(=O)N[C@H](C(=O)O)Cc1ccc(cc1)C(=O)N[C@H]1C[C@@H](C(=O)N[C@@H](Cc3ccc4ccccc4c3)C(=O)N[C@H](C(=O)O)Cc3ccc(cc3)OC/C=C/CO2)N(C(=O)[C@@H](NC(=O)[C@H](C)NC)C(C)(C)C)C1 [Example 72]
8 | 14.6 | 293 | CN[C@@H](C)C(=O)N[C@H](C(=O)N[C@H]1C/C=C\CC[C@@H](C(=O)O)NC(=O)[C@H](Cc2ccc3ccccc3c2)NC(=O)[C@@H]2CN(CCN2C(=O)[C@@H](NC(=O)[C@H](C)NC)C(C)(C)C)C(=O)CNC(=O)CC[C@@H](C(=O)O)NC(=O)[C@H](Cc2ccc3ccccc3c2)NC1=O)C(C)(C)C [Example 76]
9 | 2.1 | 5.8 | CNC(C)C(=O)NC(C(=O)N1CC2CC1C(=O)NC(Cc1ccc3ccccc3c1)C(=O)NC(C(=O)O)Cc1ccc(cc1)OCC=CCOC1CC(C(=O)NC(Cc3ccc4ccccc4c3)C(=O)NC(C(=O)O)CCCCC(=O)N2)N(C(=O)C(NC(=O)C(C)NC)C(C)(C)C)C1)C(C)(C)C (stereo not shown) [Example 31]
10 | 3.5 | 6.2 | CN[C@@H](C)C(=O)N[C@H](C(=O)N1CC[C@H]2OCc3cn(nn3)CC[C@@H](C(=O)OC)NC(=O)[C@H](Cc3ccc4ccccc4c3)NC(=O)[C@@H]3[C@@H](CCN3C(=O)[C@@H](NC(=O)[C@H](C)NC)C(C)(C)C)OC/C=C/CC[C@@H](C(=O)O)NC(=O)[C@H](Cc3ccc4ccccc4c3)NC(=O)[C@H]21)C(C)(C)C [Example 16]
11 | 108 | 252 | CN[C@@H](C)C(=O)N[C@@H](C)C(=O)N1C[C@@H]2C[C@H]1C(=O)N[C@@H](Cc1ccc3ccccc3c1)C(=O)N[C@H](C(=O)O)CCC(=O)N[C@H]1C[C@@H](C(=O)N[C@@H](Cc3ccc4ccccc4c3)C(=O)N[C@H](C(=O)O)Cc3ccc(cc3)OC/C=C/CO2)N(C(=O)[C@@H](NC(=O)[C@H](C)NC)C(C)(C)C)C1 [Example 55]
12 | – | 20 | CN[C@@H](C)C(=O)N[C@H](C(=O)N1C[C@@H]2C[C@H]1C(=O)N[C@@H](Cc1ccc3ccccc3c1)C(=O)N[C@H](C(=O)O)Cc1ccc(cc1)C(=O)N[C@H]1C[C@@H](C(=O)N[C@@H](Cc3ccc4ccccc4c3)C(=O)N[C@H](C(=O)O)Cc3ccc(cc3)OC/C=C/CO2)N(C(=O)[C@@H](NC(=O)[C@H](C)NC)C(C)(C)C)C1)C1CCNCC1 [Example 67]
13 | – | 7.1 | CN[C@@H](C)C(=O)N[C@H](C(=O)N1C[C@@H]2C[C@H]1C(=O)N[C@@H](Cc1ccc3ccccc3c1)C(=O)N[C@H](C(=O)O)Cc1ccc(cc1)C(=O)N[C@H]1C[C@@H](C(=O)N[C@@H](Cc3ccc4ccccc4c3)C(=O)N[C@H](C(=O)O)Cc3ccc(cc3)OC/C=C/CO2)N(C(=O)[C@@H](NC(=O)[C@H](C)NC)C(C)(C)C)C1)C1CCNCC1 [Example 74]

Row | SMILES | IC50 [1] [nM] | IC50 (His-BIR3 (241-356, XIAP)) [nM]
14 | CN[C@@H](C)C(=O)NC(C(=O)N1C[C@H]2CCCCOc3ccc(cc3)C[C@@H](c3n[nH]c(=O)o3)NC(=O)C(Cc3ccc4ccccc4c3)NC(=O)[C@@H]3C[C@@H](CN3C(=O)[C@@H](NC(=O)[C@H](C)NC)C(C)(C)C)n3cc(nn3)COc3ccc(cc3)C[C@@H](C(=O)O)NC(=O)[C@H](Cc3ccc4ccccc4c3)NC(=O)[C@@H]1C2)C(C)(C)C (stereo partly shown) [Example 92] | 0.9 | 2.9
15 | CN[C@@H](C)C(=O)N[C@H](C(=O)N1C[C@@H]2C[C@H]1C(=O)N[C@@H](Cc1ccc3ccccc3c1)C(=O)N[C@H](C(=O)O)Cc1ccc(cc1)OC/C=C/CO[C@H]1C[C@@H](C(=O)N[C@@H](Cc3ccc4ccccc4c3)C(=O)N[C@H](C(=O)NS(=O)(=O)c3ccccn3)Cc3ccc(cc3)OCc3cn2nn3)N(C(=O)[C@@H](NC(=O)[C@H](C)NC)C(C)(C)C)C1)C(C)(C)C [Example 118] | 1.8 | 6.3
16 | CNC(C)C(=O)NC(C(=O)N1CC2CC1C(=O)NC(Cc1ccc3ccccc3c1)C(=O)NC(C(=O)O)Cc1ccc(cc1)OCc1cn(nn1)C1CC(C(=O)NC(Cc3ccc4ccccc4c3)C(=O)NC(C(=O)O)Cc3ccc(cc3)OCC=CCO2)N(C(=O)C(NC(=O)C(C)NC)C(C)(C)C)C1)C(C)(C)C (stereo not shown) [Example 4] | 0.7 | 4.1
